Results: US8940909B2, “Indicator platform” (Biosynth AG, priority 2009, dated 2015)

Experiments:
Assay in all cases: IO staining of colonies of beta-D-galactosidase positive/negative bacteria (Table IVb)
Type in all cases: cell-based
[1] = test system: Pseudomonas aeruginosa 168; details: Pseudomonas aeruginosa strain 168, b-gal −, 24 h on Nutrient Agar, 150 mg/l indicator, 100 mg/l IPTG; on C: Color of colonies: key: −: absent; +/−: weak; +: strong; ++: very strong; on G: Growth of colonies: key: −: absent; +/−: weak; +: strong; ++: very strong
Serratia marcescens 40 = details: Serratia marcescens strain 40, b-gal +; 24 h on Nutrient Agar, 150 mg/l indicator, 100 mg/l IPTG
[2] = test system: Staphylococcus saprophyticus 273; details: Staphylococcus saprophyticus strain 273, b-gal +; 24 h on Nutrient Agar, 150 mg/l indicator, 100 mg/l IPTG; on G: Growth of colonies: key: −: absent; +/−: weak; +: strong; ++: very strong
Aeromonas hydrophila 292 = details: Aeromonas hydrophila strain 292, b-gal +; 24 h on Nutrient Agar, 150 mg/l indicator, 100 mg/l IPTG
Bacillus subtilis 65 = details: Bacillus subtilis strain 65, b-gal −; 24 h on Nutrient Agar, 150 mg/l indicator, 100 mg/l IPTG
Enterobacter cloacae 245 = details: Enterobacter cloacae strain 245, b-gal +; 24 h on Nutrient Agar, 150 mg/l indicator, 100 mg/l IPTG
Escherichia coli 270 = details: Escherichia coli strain 270, b-gal +; 24 h on Nutrient Agar, 150 mg/l indicator, 100 mg/l IPTG
Escherichia coli 61 = details: Escherichia coli strain 61, b-gal +; 24 h on Nutrient Agar, 150 mg/l indicator, 100 mg/l IPTG
[3] = test system: Streptococcus agalactiae 195; details: Streptococcus agalactiae strain 195, b-gal −; 24 h on Nutrient Agar, 150 mg/l indicator, 100 mg/l IPTG; on C: Color of colonies: key: −: absent; +/−: weak; +: strong; ++: very strong; on F: Fluorescence of colonies: key: −: absent; +/−: weak; +: strong; ++: very strong
Citrobacter freundii 181 = details: Citrobacter freundii strain 181, b-gal +; 24 h on Nutrient Agar, 150 mg/l indicator, 100 mg/l IPTG
Shigella boydii 135 = details: Shigella boydii strain 135, b-gal −; 24 h on Nutrient Agar, 150 mg/l indicator, 100 mg/l IPTG
Staphylococcus aureus 2 = details: Staphylococcus aureus strain 2, b-gal −, 24 h on Nutrient Agar, 150 mg/l indicator, 100 mg/l IPTG
[4] = test system: Klebsiella pneumoniae 164; details: Klebsiella pneumoniae strain 164, b-gal +; 24 h on Nutrient Agar, 150 mg/l indicator, 100 mg/l IPTG; on C: Color of colonies: key: −: absent; +/−: weak; +: strong; ++: very strong; on G: Growth of colonies: key: −: absent; +/−: weak; +: strong; ++: very strong
[5] = test system: Staphylococcus intermedius 31; details: Staphylococcus intermedius strain 31, b-gal +; 24 h on Nutrient Agar, 150 mg/l indicator, 100 mg/l IPTG
Salmonella bongori 81 = details: Salmonella bongori strain 81, b-gal +; 24 h on Nutrient Agar, 150 mg/l indicator, 100 mg/l IPTG
Salmonella illa 73 = details: Salmonella illa strain 73, b-gal +; 24 h on Nutrient Agar, 150 mg/l indicator, 100 mg/l IPTG
Shigella sonnei 133 = details: Shigella sonnei strain 133, b-gal +/−; 24 h on Nutrient Agar, 150 mg/l indicator, 100 mg/l IPTG
[6] = test system: Escherichia coli (O157:H7) 60; details: Escherichia coli (O157:H7) strain 60, b-gal +; 24 h on Nutrient Agar, 150 mg/l indicator, 100 mg/l IPTG
[7] = test system: Enterobacter aerogenes 242; details: Enterobacter aerogenes strain 242, b-gal +; 24 h on Nutrient Agar, 150 mg/l indicator, 100 mg/l IPTG; on C: Color of colonies: key: −: absent; +/−: weak; +: strong; ++: very strong; on G: Growth of colonies: key: −: absent; +/−: weak; +: strong; ++: very strong
[8] = test system: Listeria monocytogenes (4b) 290; details: Listeria monocytogenes (4b) strain 290, b-gal −; 24 h on Nutrient Agar, 150 mg/l indicator, 100 mg/l IPTG; on C: Color of colonies: key: −: absent; +/−: weak; +: strong; ++: very strong; on F: Fluorescence of colonies: key: −: absent; +/−: weak; +: strong; ++: very strong
[9] = test system: Salmonella enteritidis 43; details: Salmonella enteritidis strain 43, b-gal −; 24 h on Nutrient Agar, 150 mg/l indicator, 100 mg/l IPTG; further: key: −: absent; +/−: weak; +: strong; ++: very strong

For “5-Bromo-4-chloro-1H-indol-3-yl-beta-D-galactopyranoside [Indicator I4a, reference compound]”, the “C: Color of colonies” value [1] was “−”, the “G: Growth of colonies” value [1] was “+” and the “F: Fluorescence of colonies” value ([1]; footnote 1: blue autofluorescence) was “+^1”. The “C: Color of colonies” value (Serratia marcescens 40) was “+”, the “F: Fluorescence of colonies” value (Serratia marcescens 40) was “−” and the “G: Growth of colonies” value (Serratia marcescens 40) was “+”. The “C: Color of colonies” value [2] was “+”, the “F: Fluorescence of colonies” value [2] was “−” and the “G: Growth of colonies” value [2] was “+”. The “C: Color of colonies” value (Aeromonas hydrophila 292) was “+”, the “F: Fluorescence of colonies” value (Aeromonas hydrophila 292) was “−” and the “G: Growth of colonies” value (Aeromonas hydrophila 292) was “+”. The “C: Color of colonies” value (Bacillus subtilis 65) was “−”, the “F: Fluorescence of colonies” value (Bacillus subtilis 65) was “−” and the “G: Growth of colonies” value (Bacillus subtilis 65) was “+”. For the same substance, the “C: Color of colonies” value (Enterobacter cloacae 245) was “++”, the “F: Fluorescence of colonies” value (Enterobacter cloacae 245) was “−” and the “G: Growth of colonies” value (Enterobacter cloacae 245) was “+”. For the same substance, the “C: Color of colonies” value (Escherichia coli 270) was “++”, the “F: Fluorescence of colonies” value (Escherichia coli 270) was “−” and the “G: Growth of colonies” value (Escherichia coli 270) was “+”. For the same substance, the “C: Color of colonies” value (Escherichia coli 61) was “++”, the “F: Fluorescence of colonies” value (Escherichia coli 61) was “−” and the “G: Growth of colonies” value (Escherichia coli 61) was “+”. For the same substance, the “C: Color of colonies” value [3] was “−”, the “F: Fluorescence of colonies” value [3] was “−” and the “G: Growth of colonies” value [3] was “+/−”. For the same substance, the “C: Color of colonies” value (Citrobacter freundii 181) was “+”, the “F: Fluorescence of colonies” value (Citrobacter freundii 181) was “−” and the “G: Growth of colonies” value (Citrobacter freundii 181) was “+”. The “C: Color of colonies” value (Shigella boydii 135) was “−”, the “F: Fluorescence of colonies” value (Shigella boydii 135) was “−” and the “G: Growth of colonies” value (Shigella boydii 135) was “+”. For the same substance, the “F: Fluorescence of colonies” value (Staphylococcus aureus 2) was “−”, the “G: Growth of colonies” value (Staphylococcus aureus 2) was “+” and the “C: Color of colonies” value (Staphylococcus aureus 2; footnote 2: S. aureus natural color) was “y^2”. For the same substance, the “C: Color of colonies” value [4] was “++”, the “F: Fluorescence of colonies” value [4] was “−” and the “G: Growth of colonies” value [4] was “+”. For the same substance, the “C: Color of colonies” value [5] was “+”, the “F: Fluorescence of colonies” value [5] was “−” and the “G: Growth of colonies” value [5] was “+”. For the same substance, the “C: Color of colonies” value (Salmonella bongori 81) was “+/−”, the “F: Fluorescence of colonies” value (Salmonella bongori 81) was “−” and the “G: Growth of colonies” value (Salmonella bongori 81) was “+”. For the same substance, the “C: Color of colonies” value (Salmonella illa 73) was “−”, the “F: Fluorescence of colonies” value (Salmonella illa 73) was “−” and the “G: Growth of colonies” value (Salmonella illa 73) was “+”. For the same substance, the “C: Color of colonies” value (Shigella sonnei 133) was “+”, the “F: Fluorescence of colonies” value (Shigella sonnei 133) was “−” and the “G: Growth of colonies” value (Shigella sonnei 133) was “+”. The “C: Color of colonies” value [6] was “++”, the “F: Fluorescence of colonies” value [6] was “−” and the “G: Growth of colonies” value [6] was “+”. The “C: Color of colonies” value [7] was “++”, the “F: Fluorescence of colonies” value [7] was “−” and the “G: Growth of colonies” value [7] was “+”. For the same substance, the “C: Color of colonies” value [8] was “−”, the “F: Fluorescence of colonies” value [8] was “−” and the “G: Growth of colonies” value [8] was “+/−”. For the same substance, the “C: Color of colonies” value [9] was “−”, the “F: Fluorescence of colonies” value [9] was “−” and the “G: Growth of colonies” value [9] was “+”.
